According to patent publication US20130157345A1, “STABILIZATION AND ACTIVATION OF PROTEASE FOR USE AT HIGH TEMPERATURE” (ECOLAB USA INC., priority 2011, published 2013):

Tested on: protein (gelatin) layers of photographic film
Experiment: Photographic film test: removal of gelatin protein layers by enzyme in heated water
Type: biochemical
Conditions: 400 ppm additive, 160-170° F
From the text: Photographic film contains a layer of a binding agent that is a protein (gelatin) which is readily attacked and removed by protease under ambient conditions. The film has multiple colored layers of the gelatin binding agent which can serve as an indication of the degree of attack if exposed to suitable enzymes. Photographic film was used in experiments to show the ability of enzymes, proteases, to attach or remove the protein layer under various conditions.
In the experiments outlined in Table 1, a beaker was charged with 5 grain tap water. An activator, “Additive 1”, was added to the beaker with the water temperature adjusted to the temperature as shown in the “Temp (F) Additive 1” column. The solution was then adjusted for the film test to the temperature as shown in “Temp (F) Enzyme” and a protease enzyme and section of photographic film added. The solution was stirred for 5 minutes and the film recovered and wiped with a paper towel for visual examination.
The additive, enzyme and then the combination of protease enzyme and additives were heated to the temperatures indicated in the applicable columns to analyze the various conditions under which the protease enzyme was able to readily attack and removed the protein (gelatin) layers of the photographic film. […]

Compound	additive function as activator/stabilizer of enzymes at elevated temperatures
O=C(O)[C@@H]1CCCN1 [proline]	function to activate and/or stabilize enzymes
cocoamidyl propyl butane [CAPB]	function to activate and/or stabilize enzymes
